Laboratory results reported in patent US20240246980A1, “MODULATORS OF MAS-RELATED G-PROTEIN RECEPTOR D AND RELATED PRODUCTS AND METHODS” (Escient Pharmaceuticals, Inc., priority 2022, published 2024).

Molecular target: human MRGPRD (Homo sapiens, UniProt Q8TDS7)
Experiment: MRGPRD antagonist activity, IP-One HTRF assay in CHO cells stably expressing human MRGPRD (versus 100 μM β-Alanine agonist)
Format: cell-based
Procedure: Chinese Hamster Ovary (CHO) cells stably expressing human MRGPRD (Eurofins, San Diego CA) were plated in a 384-well plate at 20,000 cells per well in 12 μL of Optimem (Fisher Scientific 11-058-021). Plates were kept in the incubator at 37° C. overnight. Antagonists were solubilized at a concentration of 10 mM in DMSO, and the agonists were solubilized to stock concentrations of either 50 mM in H2O (β-Alanine) or 10 mM in DMSO (all others) and then diluted in assay buffer (final concentrations of 5.7 mM Tris-HCl, 43 mM NaCl, 50 mM LiCl, pH=8). The concentration of DMSO was normalized across the plate. Antagonists were added to the plate using a Tecan D300 Digital Dispenser at nanoliter/picoliter volumes and 2 μL of agonists in assay buffer were added to each well for a final assay volume of 14 μL. Plates were covered and incubated for 1 h at 37° C. and then for 1 h at room temperature. IP-1 standards and HTRF detection reagents were added according to an IP-One-Gq Kit purchased from Cisbio (part number 62IPAPEJ) and incubated in the dark for 1 h at room temperature. Assay plates were read on either a Molecular Devices SpectraMax iD5 plate reader or a BMG ClarioStar plate reader. The HTRF ratio was calculated form the raw data and graphed using GraphPad Prism to calculate IC50 values. Data are expressed as average IC50 values and average percent antagonism calculated as a percent of the maximum efficacy response. For these studies, the variability of the data was assessed by determining the standard error of mean (SEM).
The activity ranges are denoted as follows: “+++++” denotes antagonist activity <100 nM; “++++” denotes antagonist activity between 100 and 500 nM; “+++” denotes activity between 500 and 1000 nM; “++” denotes activity between 1000 and 3000 nM; and “+” denotes activity >3000 nM.

Chain of human MRGPRD (Q8TDS7 whole entry): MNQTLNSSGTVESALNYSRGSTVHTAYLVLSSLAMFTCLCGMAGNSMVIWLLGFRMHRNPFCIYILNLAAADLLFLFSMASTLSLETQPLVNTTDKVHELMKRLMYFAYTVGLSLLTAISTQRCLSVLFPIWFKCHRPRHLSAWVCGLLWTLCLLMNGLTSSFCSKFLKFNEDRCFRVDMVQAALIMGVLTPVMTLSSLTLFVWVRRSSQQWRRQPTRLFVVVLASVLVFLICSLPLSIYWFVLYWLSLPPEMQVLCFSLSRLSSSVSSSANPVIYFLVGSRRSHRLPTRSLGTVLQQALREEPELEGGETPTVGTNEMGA

| IC50 [µM] | SMILES |
| --- | --- |
| 0.5 to 1 | COc1cccc(-c2nc([C@@H]3CCCN(C(=O)NCCCN(C)C)C3)n3ccccc23)c1 [Compound 1-27] |
| 0.1 to 0.5 | COc1cccc(-c2nc([C@@H]3CCCN(C(=O)Nc4nc(C(C)C)ns4)C3)n3ccccc23)c1 [Compound 1-28] |
| 0.5 to 1 | COc1cccc(-c2nc([C@@H]3CCCN(C(=O)NCCN(C)C)C3)n3ccccc23)c1 [Compound 1-29] |
| 0.1 to 0.5 | COc1cccc(-c2nc([C@@H]3CCCN(C(=O)Nc4ccon4)C3)n3ccccc23)c1 [Compound 1-30] |
| 0.1 to 0.5 | COc1cccc(-c2nc([C@@H]3CCCN(C(=O)Nc4ccc5ccccc5c4)C3)n3ccccc23)c1 [Compound 1-31] |
| < 0.1 | COc1cccc(-c2nc([C@@H]3CCCN(C(=O)Nc4ccc5c(cnn5C)c4)C3)n3ccccc23)c1 [Compound 1-32] |
| < 0.1 | COc1cccc(-c2nc([C@@H]3CCCN(C(=O)Nc4noc(C)c4C)C3)n3ccccc23)c1 [Compound 1-33] |
| > 3 | CNC(=O)N1CCC[C@@H](c2nc(-c3cccc(OC)c3)c3ccccn23)C1 [Compound 2-1, (R)-3-(1-(3-methoxyphenyl)imidazo[1,5-a]pyridin-3-yl)-N-methylpiperidine-1-carboxamide] |
| > 3 | CNC(=O)N1CCC[C@H](c2nc(-c3cccc(OC)c3)c3ccccn23)C1 [Compound 2-2] |
| 0.1 to 0.5 | COc1cccc(-c2nc(C3CCCN(C(=O)Nc4ccc(F)cc4)C3)n3ccccc23)c1 (stereo not drawn) [Compound 3-1] |
| 0.1 to 0.5 | COc1cccc(-c2nc(C3CCCN(C(=O)Nc4cccc(C)c4)C3)n3ccccc23)c1 (stereo not drawn) [Compound 3-2] |
| 0.1 to 0.5 | COc1cccc(-c2nc(C3CCCN(C(=O)Nc4cccc(F)c4)C3)n3ccccc23)c1 (stereo not drawn) [Compound 3-3] |
| 1 to 3 | COc1cccc(-c2nc(C3CCCN(C(=O)Nc4ccccc4C)C3)n3ccccc23)c1 (stereo not drawn) [Compound 3-4] |
| 0.1 to 0.5 | COc1cccc(-c2nc(C3CCCN(C(=O)Nc4ccc(C)cc4)C3)n3ccccc23)c1 (stereo not drawn) [Compound 3-5] |
| 0.1 to 0.5 | COc1cccc(-c2nc(C3CCCN(C(=O)Nc4ccccc4)C3)n3ccccc23)c1 (stereo not drawn) [Compound 3-6] |
| 0.5 to 1 | COc1cccc(-c2nc(C3CCCN(C(=O)Nc4ccccc4Cl)C3)n3ccccc23)c1 (stereo not drawn) [Compound 3-7] |
| 0.1 to 0.5 | COc1cccc(-c2nc(C3CCCN(C(=O)Nc4ccccc4OC)C3)n3ccccc23)c1 (stereo not drawn) [Compound 3-8] |
| 0.1 to 0.5 | CCNC(=O)N1CCCC(c2nc(-c3cccc(OC)c3)c3ccccn23)C1 (stereo not drawn) [Compound 3-9] |
| 0.5 to 1 | COc1cccc(-c2nc(C3CCCN(C(=O)NC(C)(C)C)C3)n3ccccc23)c1 (stereo not drawn) [Compound 3-10] |
| > 3 | COc1cccc(-c2nc(C3CCCN(C(=O)NC4CC4)C3)n3ccccc23)c1 (stereo not drawn) [Compound 3-11] |
| 0.1 to 0.5 | COc1cccc(-c2nc(C3CCCN(C(=O)Nc4ccc(OC)cc4C)C3)n3ccccc23)c1 (stereo not drawn) [Compound 3-12] |
| > 3 | CNC(=O)N1CCCC(c2nc(-c3cccc(OC)c3)c3ccccn23)C1 (stereo not drawn) [Compound 3-13] |
| > 3 | COc1cccc(-c2nc(C3CCCN(C(=O)NCC4CC4)C3)n3ccccc23)c1 (stereo not drawn) [Compound 3-14] |
| > 3 | CCc1ccccc1NC(=O)N1CCCC(c2nc(-c3cccc(OC)c3)c3ccccn23)C1 (stereo not drawn) [Compound 3-15] |
| 0.1 to 0.5 | COc1cccc(NC(=O)N2CCCC(c3nc(-c4cccc(OC)c4)c4ccccn34)C2)c1 (stereo not drawn) [Compound 3-16] |

| IC50 [µM] | SMILES |
| --- | --- |
| 0.5 to 1 | COc1cccc(-c2nc(C3CCCN(C(=O)Nc4cccc(Cl)c4)C3)n3ccccc23)c1 (stereo not drawn) [Compound 3-17] |
| > 3 | CCc1cccc(NC(=O)N2CCCC(c3nc(-c4cccc(OC)c4)c4ccccn34)C2)c1 (stereo not drawn) [Compound 3-18] |
| 0.1 to 0.5 | COc1ccc(NC(=O)N2CCCC(c3nc(-c4cccc(OC)c4)c4ccccn34)C2)cc1 (stereo not drawn) [Compound 3-19] |
| 0.5 to 1 | COc1cccc(-c2nc(C3CCCN(C(=O)Nc4ccc(Cl)cc4)C3)n3ccccc23)c1 (stereo not drawn) [Compound 3-20] |
| 0.1 to 0.5 | COc1cccc(-c2nc(C3CCCN(C(=O)Nc4cccc(C#N)c4)C3)n3ccccc23)c1 (stereo not drawn) [Compound 3-21] |
| 0.1 to 0.5 | CCc1ccc(NC(=O)N2CCCC(c3nc(-c4cccc(OC)c4)c4ccccn34)C2)cc1 (stereo not drawn) [Compound 3-22] |
| 0.1 to 0.5 | COc1cccc(-c2nc(C3CCCN(C(=O)Nc4ccc(C)c(C)c4)C3)n3ccccc23)c1 (stereo not drawn) [Compound 3-23] |
| 0.1 to 0.5 | COc1cccc(-c2nc(C3CCCN(C(=O)Nc4cccc(N(C)C)c4)C3)n3ccccc23)c1 (stereo not drawn) [Compound 3-24] |
| < 0.1 | COc1cccc(-c2nc(C3CCCN(C(=O)Nc4ccc(N(C)C)cc4)C3)n3ccccc23)c1 (stereo not drawn) [Compound 3-25, N-(4-(dimethylamino)phenyl)-3-(1-(3-methoxyphenyl)imidazo[1,5-a]pyridin-3-yl)piperidine-1-carboxamide] |
| 0.1 to 0.5 | COc1cccc(-c2nc(C3CCCN(C(=O)Nc4cccc(OC)c4C)C3)n3ccccc23)c1 (stereo not drawn) [Compound 3-26] |
| < 0.1 | COc1cccc(-c2nc([C@@H]3CCCN(C(=O)Nc4ccccc4)C3)n3ccccc23)c1 [Compound 3-27] |
| 0.1 to 0.5 | COc1cccc(-c2nc(C3CCCN(C(=O)Nc4ccccc4F)C3)n3ccccc23)c1 (stereo not drawn) [Compound 3-28] |
| 1 to 3 | COc1cccc(-c2nc([C@H]3CCCN(C(=O)Nc4ccccc4)C3)n3ccccc23)c1 [Compound 3-29] |
| 0.1 to 0.5 | COc1cccc(-c2nc(C3CCCN(C(=O)Nc4ccc(OC)c(OC)c4)C3)n3ccccc23)c1 (stereo not drawn) [Compound 4-1] |
| < 0.1 | COc1cccc(-c2nc(C3CCCN(C(=O)Nc4cc(OC)c(OC)c(OC)c4)C3)n3ccccc23)c1 (stereo not drawn) [Compound 4-2, 3-(1-(3-methoxyphenyl)imidazo[1,5-a]pyridin-3-yl)-N-(3,4,5-trimethoxyphenyl)piperidine-1-carboxamide] |
| 0.5 to 1 | COc1cccc(-c2nc(C3CCCN(C(=O)Nc4ccccc4N(C)C)C3)n3ccccc23)c1 (stereo not drawn) [Compound 4-3] |
| 0.5 to 1 | COc1cccc(-c2nc(C3CCCN(C(=O)Nc4ccc(C#N)cc4)C3)n3ccccc23)c1 (stereo not drawn) [Compound 4-4] |
| 1 to 3 | COc1cccc(-c2nc(C3CCCN(C(=O)N(C)c4ccccc4)C3)n3ccccc23)c1 (stereo not drawn) [Compound 5-1] |
| 1 to 3 | COc1cccc(-c2nc(C3CCCN(C(=O)N(C)c4ccc(F)cc4)C3)n3ccccc23)c1 (stereo not drawn) [Compound 5-2] |
| 0.5 to 1 | COc1cccc(-c2nc(C3CCCN(C(=O)Nc4ccc(C)cc4F)C3)n3ccccc23)c1 (stereo not drawn) [Compound 5-3] |
| < 0.1 | COc1cccc(-c2nn(C3CCCN(C(=O)Nc4ccc(N(C)C)cc4)C3)c3ccccc23)c1 (stereo not drawn) [Compound 5-6] |
| < 0.1 | COc1cccc(-c2nc([C@@H]3CCCN(C(=O)Nc4ccc(CO)cc4)C3)n3ccccc23)c1 [Compound 5-7] |
| 1 to 3 | COc1cccc(-c2nc(C3CCN(C(=O)Nc4cccc(N(C)C)c4)CC3)n3ccccc23)c1 [Compound 5-8] |
| > 3 | COc1cccc(-c2nc(C3CCN(C(=O)Nc4ccc(N(C)C)cc4)CC3)n3ccccc23)c1 [Compound 5-9] |

| SMILES | IC50 [µM] |
| --- | --- |
| COc1cccc(-c2nc(C3CCCN(C(=O)Nc4ccc(C)cc4C)C3)n3ccccc23)c1 (stereo not drawn) [Compound 5-4] | 0.1 to 0.5 |
| COc1cccc(-c2nc(C3CCCN(C(=O)Nc4ccc(C)cc4C)C3)n3ccccc23)c1 (stereo not drawn) [Compound 5-5, N-(2,4-dimethylphenyl)-3-(1-(3-methoxyphenyl)imidazo[1,5-a]pyridin-3-yl)piperidine-1-carboxamide] | 0.1 to 0.5 |
